Counter-ions that a name gives are not always drawn.
Experiments:
[1] = target: T1, 4-aminobutyrate aminotransferase, mitochondrial (Sus scrofa, UniProt P80147); experiment: The Dissociation Constant for Gamma-amino-N-butyrate transaminase
[2] = target: 4-aminobutyrate aminotransferase, mitochondrial (Sus scrofa) (UniProt P80147); experiment: The Reactivation Kinetic Constant for Gamma-amino-N-butyrate transaminase
[3] = target: 4-aminobutyrate aminotransferase, mitochondrial (Sus scrofa) (UniProt P80147); experiment: Dissociation constant of the Gamma-amino-N-butyrate transaminase
[4] = target: T1, 4-aminobutyrate aminotransferase, mitochondrial; experiment: Inhibitory activity against Gamma-amino-N-butyrate transaminase
[5] = target: 4-aminobutyrate aminotransferase, mitochondrial (Sus scrofa) (UniProt P80147); experiment: Inhibitory rate constant against Gamma-amino-N-butyrate transaminase

T1 sequence (P80147 whole entry): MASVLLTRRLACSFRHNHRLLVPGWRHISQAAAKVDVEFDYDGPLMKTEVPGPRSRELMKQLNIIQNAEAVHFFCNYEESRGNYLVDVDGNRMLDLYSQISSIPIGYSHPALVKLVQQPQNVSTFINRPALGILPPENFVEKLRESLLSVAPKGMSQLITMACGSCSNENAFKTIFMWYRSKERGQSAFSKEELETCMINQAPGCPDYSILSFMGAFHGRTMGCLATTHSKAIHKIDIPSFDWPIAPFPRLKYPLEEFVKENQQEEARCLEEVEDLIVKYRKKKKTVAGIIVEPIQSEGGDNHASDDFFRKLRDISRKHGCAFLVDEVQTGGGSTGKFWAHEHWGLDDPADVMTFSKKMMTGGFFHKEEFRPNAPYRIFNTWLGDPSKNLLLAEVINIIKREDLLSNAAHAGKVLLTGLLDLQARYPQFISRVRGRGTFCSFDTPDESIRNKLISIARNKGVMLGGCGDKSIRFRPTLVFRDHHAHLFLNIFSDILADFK
4-aminobutyrate aminotransferase, mitochondrial (Sus scrofa), sequence (P80147 whole entry): as above

With NNCCC(=O)O the Kd [1] was less than 20 nM and the Kreact [2] was 0.0069 min⁻¹.

NNCc1cccc(O)c1 [3-HYDROXYBENZYLHYDRAZINE DIHYDROCHLORIDE] showed a Kd [1] of 460 nM, a Kreact [2] of 0.02 min⁻¹ and a K4 [3] of 0.005 min⁻¹. The Ki [4] was 300 nM and the K3 [5] was 330 M⁻¹ s⁻¹.

Work on CNN [METHYLHYDRAZINE] yielded a Kd [1] of 2800 nM, a Kreact [2] of 4 min⁻¹ and a K4 [3] of 0.0046 min⁻¹. For the same compound, the Ki [4] was 2200 nM and the K3 [5] was 34.7 M⁻¹ s⁻¹.
